Experimental data as given in ChEMBL document CHEMBL5108002, “Design, synthesis, and biological evaluation of novel 7-substituted 10,11-methylenedioxy-camptothecin derivatives against drug-resistant small-cell lung cancer in vitro and in vivo” (Eur J Med Chem, 2022).
pIC50: −log10 of the molar value. Active and inactive are the calls of the source. The calls are words filed in the database; no cut-off is given here.

Columns and labels:
[1] = tested on: SW-620; experiment: Antiproliferative activity against human SW-620 cells assessed as inhibition of cell growth incubated for 72 hrs by SRB assay; format: functional, cell-based; details: SW-620, 72 h
[2] = tested on: 2008; experiment: Antiproliferative activity against human 2008 cells assessed as inhibition of cell growth incubated for 72 hrs by SRB assay; format: functional, cell-based; details: Homo sapiens, 2008, 72 h
[3] = Resistance index, ratio of IC50 for antiproliferative activity against Irinotecan-resistant human NCI-H446 cells to IC50 for antiproliferative activity against human NCI-H446 cells; format: functional
[4] = tested on: NCI-H446; experiment: Antiproliferative activity against Irinotecan-resistant human NCI-H446 cells assessed as inhibition of cell growth incubated for 72 hrs by SRB assay; format: functional, cell-based; details: NCI-H446, 72 h
[5] = Resistance index, ratio of IC50 for antiproliferative activity against etoposide/cisplatin combination-resistant human NCI-H446 cells to IC50 for antiproliferative activity against human NCI-H446 cells; format: functional
[6] = tested on: NCI-H446; experiment: Antiproliferative activity against etoposide/cisplatin combination-resistant human NCI-H446 cells assessed as inhibition of cell growth incubated for 72 hrs by SRB assay; format: functional, cell-based; details: NCI-H446, 72 h
[7] = tested on: NCI-H446; experiment: Antitumor activity against Irinotecan-resistant human NCI-H446 cells xenografted in BALB/c nude mouse assessed as tumor weight at 100 mg/kg, IG administered once a week and measured 3 times a week for 35 days; format: functional; details: time 35 day
[8] = tested on: NCI-H446; experiment: Antitumor activity against human NCI-H446 cells xenografted in BALB/c nude mouse assessed as tumor growth inhibition at 3 mg/kg, IG administered once a week for 28 days by electronic caliper method relative to control; format: functional; details: NCI-H446, po, 672 h, time 28 day, read-out: TGI
[9] = tested on: H69AR; experiment: Induction of apoptosis in human NCI-H69AR cells assessed as late apoptotic cells at 10 nM incubated for 24 hrs by AnnexinV-FITC/PI staining based flow cytometry analysis (reference value: 2.99 %); format: functional
[10] = tested on: NCI-H446; experiment: Induction of apoptosis in human NCI-H446 cells assessed as increase in cleaved-caspase 3 protein expression at 0.1 to 100 nM measured after 24 hrs by Western blot analysis; format: functional, cell-based; details: dose 0.1-100 nM
[11] = tested on: H69AR; experiment: Induction of apoptosis in human NCI-H69AR cells assessed as late apoptotic cells at 100 nM incubated for 24 hrs by AnnexinV-FITC/PI staining based flow cytometry analysis (reference value: 2.99 %); format: functional
[12] = tested on: Bel-7402; experiment: Antiproliferative activity against human Bel-7402 cells assessed as inhibition of cell growth incubated for 72 hrs by SRB assay; format: functional, cell-based; details: Bel-7402, 72 h
[13] = tested on: MCF7; experiment: Antiproliferative activity against human MCF7 cells assessed as inhibition of cell growth incubated for 72 hrs by SRB assay; format: functional, cell-based; details: MCF7, 72 h
[14] = tested on: NCI-H446; experiment: Induction of apoptosis in human NCI-H446 cells assessed as early apoptotic cells at 0.1 nM incubated for 24 hrs by AnnexinV-FITC/PI staining based flow cytometry analysis (reference value: 2.43 %); format: functional
[15] = tested on: H69AR; experiment: Induction of apoptosis in human NCI-H69AR cells assessed as early apoptotic cells at 10 nM incubated for 24 hrs by AnnexinV-FITC/PI staining based flow cytometry analysis (reference value: 0.35 %); format: functional
[16] = tested on: NCI-H446; experiment: Induction of apoptosis in human NCI-H446 cells assessed as increase in cleaved-PARP protein expression at 0.1 to 100 nM measured after 24 hrs by Western blot analysis; format: functional, cell-based; details: dose 0.1-100 nM
[17] = tested on: SH-SY5Y; experiment: Antiproliferative activity against human SH-SY5Y cells assessed as inhibition of cell growth incubated for 72 hrs by SRB assay; format: functional, cell-based
[18] = tested on: NCI-H69; experiment: Antiproliferative activity against human NCI-H69 cells assessed as inhibition of cell growth incubated for 72 hrs by SRB assay; format: functional, cell-based; details: NCI-H69, 72 h
[19] = tested on: H69AR; experiment: Induction of apoptosis in human NCI-H69AR cells assessed as dead cells at 100 nM incubated for 24 hrs by AnnexinV-FITC/PI staining based flow cytometry analysis (reference value: 1.92 %); format: functional
[20] = tested on: U-87 MG; experiment: Antiproliferative activity against human U87 cells assessed as inhibition of cell growth incubated for 72 hrs by SRB assay; format: functional, cell-based, U-87MG ATCC
[21] = tested on: NCI-H446; experiment: Induction of apoptosis in human NCI-H446 cells assessed as dead cells at 10 nM incubated for 24 hrs by AnnexinV-FITC/PI staining based flow cytometry analysis (reference value: 0.33 %); format: functional
[22] = tested on: H69AR; experiment: Induction of apoptosis in human NCI-H69AR cells assessed as early apoptotic cells at 1 nM incubated for 24 hrs by AnnexinV-FITC/PI staining based flow cytometry analysis (reference value: 0.35 %); format: functional
[23] = tested on: HepG2; experiment: Antiproliferative activity against human HepG2 cells assessed as inhibition of cell growth incubated for 72 hrs by SRB assay; format: functional, cell-based; details: HepG2, 72 h
[24] = tested on: NCI-H446; experiment: Induction of apoptosis in human NCI-H446 cells assessed as late apoptotic cells at 10 nM incubated for 24 hrs by AnnexinV-FITC/PI staining based flow cytometry analysis (reference value: 1.55 %); format: functional
[25] = tested on: NCI-H446; experiment: Induction of apoptosis in human NCI-H446 cells assessed as increase in cleaved-caspase 9 protein expression at 0.1 to 100 nM measured after 24 hrs by Western blot analysis; format: functional, cell-based; details: dose 0.1-100 nM
[26] = tested on: NCI-H446; experiment: Induction of apoptosis in human NCI-H446 cells assessed as late apoptotic cells at 0.1 nM incubated for 24 hrs by AnnexinV-FITC/PI staining based flow cytometry analysis (reference value: 1.55 %); format: functional
[27] = tested on: NCI-H446; experiment: Induction of apoptosis in human NCI-H446 cells assessed as early apoptotic cells at 1 nM incubated for 24 hrs by AnnexinV-FITC/PI staining based flow cytometry analysis (reference value: 2.43 %); format: functional
[28] = tested on: H69AR; experiment: Induction of apoptosis in human NCI-H69AR cells assessed as early apoptotic cells at 100 nM incubated for 24 hrs by AnnexinV-FITC/PI staining based flow cytometry analysis (reference value: 0.35 %); format: functional
[29] = tested on: H69AR; experiment: Induction of apoptosis in human NCI-H69AR cells assessed as dead cells at 1 nM incubated for 24 hrs by AnnexinV-FITC/PI staining based flow cytometry analysis (reference value: 1.92 %); format: functional
[30] = tested on: H69AR; experiment: Induction of apoptosis in human NCI-H69AR cells assessed as late apoptotic cells at 1 nM incubated for 24 hrs by AnnexinV-FITC/PI staining based flow cytometry analysis (reference value: 2.99 %); format: functional
[31] = tested on: NCI-H446; experiment: Induction of apoptosis in human NCI-H446 cells assessed as dead cells at 0.1 nM incubated for 24 hrs by AnnexinV-FITC/PI staining based flow cytometry analysis (reference value: 0.33 %); format: functional
[32] = tested on: NCI-H446; experiment: Induction of apoptosis in human NCI-H446 cells assessed as dead cells at 1 nM incubated for 24 hrs by AnnexinV-FITC/PI staining based flow cytometry analysis (reference value: 0.33 %); format: functional
[33] = tested on: H69AR; experiment: Antiproliferative activity against human NCI-H69AR cells assessed as inhibition of cell growth incubated for 72 hrs by SRB assay; format: functional, cell-based
[34] = tested on: NCI-H446; experiment: Induction of apoptosis in human NCI-H446 cells assessed as late apoptotic cells at 1 nM incubated for 24 hrs by AnnexinV-FITC/PI staining based flow cytometry analysis (reference value: 1.55 %); format: functional
[35] = tested on: NCI-H446; experiment: Induction of apoptosis in human NCI-H446 cells assessed as early apoptotic cells at 10 nM incubated for 24 hrs by AnnexinV-FITC/PI staining based flow cytometry analysis (reference value: 2.43 %); format: functional
[36] = tested on: H69AR; experiment: Induction of apoptosis in human NCI-H69AR cells assessed as dead cells at 10 nM incubated for 24 hrs by AnnexinV-FITC/PI staining based flow cytometry analysis (reference value: 1.92 %); format: functional

CC[C@@]1(O)C(=O)OCc2c1cc1n(c2=O)Cc2c-1nc1cc3c(cc1c2-c1cccs1)OCO3
pIC50 [1]: 9.54
pIC50 [2]: 8.39

CC[C@@]1(O)C(=O)OCc2c1cc1n(c2=O)Cc2c-1nc1cc3c(cc1c2-c1ccco1)OCO3
pIC50 [1]: 6.99
pIC50 [2]: 9.80

CC[C@@]1(O)C(=O)OCc2c1cc1n(c2=O)Cc2cc3c(CN(C)C)c(O)ccc3nc2-1 [TOPOTECAN]
pIC50 [1]: < 6.30
pIC50 [2]: < 6.30

CC[C@@]1(O)C(=O)OCc2c1cc1n(c2=O)Cc2c-1nc1cc3c(cc1c2-c1ccc(CO)cc1)OCO3
pIC50 [1]: 9.55
pIC50 [2]: 8.12

CC[C@@]1(O)C(=O)OCc2c1cc1n(c2=O)Cc2c-1nc1cc3c(cc1c2-c1ccncc1)OCO3
pIC50 [1]: 8.57
pIC50 [2]: 7.03

CC[C@@]1(O)C(=O)OCc2c1cc1n(c2=O)Cc2c-1nc1cc3c(cc1c2-c1ccsc1)OCO3
pIC50 [1]: 9.44
pIC50 [2]: 7.41

COc1cccc2c1C(=O)c1c(O)c3c(c(O)c1C2=O)C[C@@](O)(C(=O)CO)C[C@@H]3O[C@H]1C[C@H](N)[C@H](O)[C@H](C)O1 [DOXORUBICIN]
Ratio IC50 [3]: 14.64
pIC50 [4]: 8.24
Ratio IC50 [5]: 46.56

CC[C@@]1(O)C(=O)OCc2c1cc1n(c2=O)Cc2c-1nc1cc3c(cc1c2-c1cccnc1)OCO3
pIC50 [1]: 9.77
pIC50 [2]: 7.93

CC[C@@]1(O)C(=O)OCc2c1cc1n(c2=O)Cc2c-1nc1cc3c(cc1c2-c1cc(C(F)(F)F)cc(C(F)(F)F)c1)OCO3
pIC50 [1]: 8.84
pIC50 [2]: 7.30

COc1cc([C@@H]2c3cc4c(cc3[C@@H](O[C@@H]3O[C@@H]5CO[C@@H](C)O[C@H]5[C@H](O)[C@H]3O)[C@H]3COC(=O)[C@H]23)OCO4)cc(OC)c1O [ETOPOSIDE]
Ratio IC50 [3]: 11.48
pIC50 [4]: 6.72
Ratio IC50 [5]: 19.28

CCc1c2c(nc3ccc(OC(=O)N4CCC(N5CCCCC5)CC4)cc13)-c1cc3c(c(=O)n1C2)COC(=O)[C@]3(O)CC [IRINOTECAN]
Ratio IC50 [3]: 15
pIC50 [6]: 9.89
Activity [7]: 2.28 g
pIC50 [4]: 9.82
inhibition in vivo at 3 mg/kg [8]: 26.8%
Ratio IC50 [5]: 13

CC[C@@]1(O)C(=O)OCc2c1cc1n(c2=O)Cc2cc3cc4c(cc3nc2-1)OCO4
Ratio IC50 [3]: 2.09
Activity [9]: 7.33%
Activity [10]: Active
pIC50 [6]: 8.18
Activity [11]: 32.78%
pIC50 [12]: 7.66
pIC50 [13]: 7.20
Activity [14]: 3.93%
Activity [15]: 0.43%
Activity [16]: Active
pIC50 [17]: 7.62
pIC50 [18]: 7.80
Activity [19]: 1.56%
pIC50 [4]: 7.73
pIC50 [20]: 6.96
Activity [21]: 0.37%
Activity [22]: 0.58%
pIC50 [23]: 7.97
Activity [24]: 2.82%
Activity [25]: Active
Activity [26]: 0.83%
inhibition in vivo at 3 mg/kg [8]: 27.7%
Activity [27]: 9.64%
Activity [28]: 1.3%
pIC50 [1]: 9.03
Activity [29]: 1.72%
Activity [30]: 5.73%
Activity [31]: 0.34%
Activity [32]: 0.97%
pIC50 [33]: 8.20
Activity [34]: 1.83%
Activity [35]: 14.27%
Activity [36]: 2.87%
Ratio IC50 [5]: 0.78
pIC50 [2]: 7.43

CC[C@@]1(O)C(=O)OCc2c1cc1n(c2=O)Cc2c-1nc1cc3c(cc1c2-c1cnn(C)c1)OCO3
pIC50 [1]: 9.08
pIC50 [2]: 7.65
